Test results reported in patent publication US20140037742A1, “ALGINATE MICROPARTICLES AND METHODS OF USING THE SAME” (priority 2012, published 2014).

System: Staphylococcus epidermidis
Test: Antimicrobial testing, zones of inhibition around saturated discs on agar plates
Type: cell-based
Settings: positive control disc, all test plates
Protocol: Each disc was saturated with different test materials and zones of inhibition were measured after plates were incubated for 24 and 48 hours.
The synthesized microparticles were also tested for their antimicrobial activity against Staphylococcus epidermidis, a substitute for the pathogenic Staphylococcus aureus.

## [H]/N=C(/N)N[C@H]1[C@H](O)[C@@H](O)[C@H](O[C@@H]2O[C@@H](C)[C@](O)(C=O)[C@H]2O[C@@H]2O[C@@H](CO)[C@H](O)[C@@H](O)[C@@H]2NC)[C@@H](N/C(N)=N\[H])[C@@H]1O [Streptomycin]
  zone of inhibition: large, consistent zone of inhibition
